Source: US12478617B2, “Lipidated peptide inhibitors of interleukin-23 receptor” (JANSSEN BIOTECH, INC., priority 2021, dated 2025)
Starred links: 1 amine or outer side, 2 acyl side, 3 side chain; linkers in the order of their positions; H or OH if unused. Positions of bridges follow the written chain, without caps; N, C: chain ends. Non-standard residues stand in square brackets, D forms with d. Residues, ends and D or L forms follow the SMILES beside them. Groups on a side chain read outwards from the residue. *: point of attachment. εLys(α-Octadecanedioyl) = O=C(O)CCCCCCCCCCCCCCCCC(=O)N[C@@H](CCCCN*)C(=O)O; Trp(7-Me) = Cc1cccc2c(C[C@H](N)C(=O)O)c[nH]c12; d(γGlu) = O=C(O)[C@@H](CCC(=O)[*:2])N[*:1]; C18 diacid = O=C(O)CCCCCCCCCCCCCCCCC(=O)*; γGlu = O=C(O)[C@H](CCC(=O)[*:2])N[*:1]; 2Nal = N[C@@H](Cc1ccc2ccccc2c1)C(=O)O; AEF = NCCOc1ccc(C[C@H](N)C(=O)O)cc1; PEG6 = NCCOCCOCCOCCOCCOCCOCCC(=O)O; 3Pal = N[C@@H](Cc1cccnc1)C(=O)O; NMeK = CN[C@@H](CCCCN)C(=O)O; Pen = CC(C)(S)[C@H](N)C(=O)O; Thp = NC1(C(=O)O)CCOCC1; AEEA = NCCOCCOCC(=O)O; Sar = CNCC(=O)O

The compounds below were run against T1, IL-23R (Homo sapiens, UniProt Q5VWK5) (assay: IL23R Reporter Assay).
T1 construct: HEK293 cells containing IL-23R, IL-12RP31 and a firefly luciferase reporter gene driven by a STAT-inducible promoter (Promega); host or cells: HEK293
T1 sequence (Q5VWK5 24-629): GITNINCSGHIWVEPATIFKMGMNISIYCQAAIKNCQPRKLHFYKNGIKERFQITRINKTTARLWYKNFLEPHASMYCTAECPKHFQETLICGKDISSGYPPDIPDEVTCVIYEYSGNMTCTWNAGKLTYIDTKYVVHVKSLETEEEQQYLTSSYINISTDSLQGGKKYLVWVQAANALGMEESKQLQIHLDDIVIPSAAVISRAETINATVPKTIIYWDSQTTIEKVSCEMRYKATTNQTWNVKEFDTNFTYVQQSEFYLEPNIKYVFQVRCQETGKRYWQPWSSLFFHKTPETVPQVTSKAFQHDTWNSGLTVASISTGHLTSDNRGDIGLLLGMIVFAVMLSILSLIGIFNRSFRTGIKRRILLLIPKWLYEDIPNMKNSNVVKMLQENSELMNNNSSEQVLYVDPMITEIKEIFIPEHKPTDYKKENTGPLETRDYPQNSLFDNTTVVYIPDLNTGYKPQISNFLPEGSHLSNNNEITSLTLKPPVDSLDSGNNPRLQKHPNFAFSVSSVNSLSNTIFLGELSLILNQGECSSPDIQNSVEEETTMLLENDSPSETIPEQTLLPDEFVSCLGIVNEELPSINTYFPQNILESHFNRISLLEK
Assay type: cell-based
Excerpt: IL-23 binding to IL-23 receptors results in the activation of the Signal Transducer and Activator of Transcription 3 (STAT3) by phosphorylation and downstream signaling events. Accordingly. the ability of the inhibitors described herein to block IL-23 action can be assessed by monitoring the status of STAT3 activation in response to IL-23. This may be accomplished in reporter cell assays or in intact cells such as peripheral blood mononuclear cells (PBMCs).
Compounds were serially diluted in 100% (v/v) DMSO) and plated using an Echo acoustic dispenser (Labcyte) into 1536-well non-treated black assay plates (Corning #9146). […] After 5 h at 37° C., 5% CO2, 95% relative humidity, cells were placed at 20° C. and treated with BioGlo reagent (Promega) according to the Manufacturer's instructions. Luminescence was measured on a Pherastar FSX (BMG LabTech).

IC50 [nM]	Compound
0.26	CC(=O)NCCCC[C@@H]1NC(=O)[C@H](Cc2c[nH]c3c(C)cccc23)NC(=O)[C@H]([C@@H](C)O)NC(=O)[C@H](CC(N)=O)NC(=O)[C@@H](NC(C)=O)C(C)(C)SSC(C)(C)[C@@H](C(=O)N[C@@H](Cc2ccc(OCCN)cc2)C(=O)N[C@@H](Cc2ccc3ccccc3c2)C(=O)NC2(C(=O)N[C@@H](CCCCNC(C)=O)C(=O)N[C@@H](CC(N)=O)C(=O)N[C@@H](Cc3cccnc3)C(=O)N(C)CC(=O)NCCOCCOCC(=O)NCCOCCOCC(=O)NCCCC[C@H](NC(=O)CCCCCCCCCCCCCCCCC(=O)O)C(=O)O)CCOCC2)NC1=O [Example 46, MeCO-Pen*-N-T-7MeW-K(Ac)-Pen*-AEF-2Nal-THP-K(Ac)-N-3Pya-Sar-PEG2PEG2eKC18OH-COOH] (Ac-[Pen]NT[Trp(7-Me)]K(Ac)[Pen][AEF][2Nal][Thp]K(Ac)N[3Pal][Sar][AEEA][AEEA]-{εLys(α-Octadecanedioyl)}; disulfide 1-6)
0.1	CC(=O)NCCCC[C@@H]1NC(=O)[C@H](Cc2c[nH]c3c(C)cccc23)NC(=O)[C@H]([C@@H](C)O)NC(=O)[C@H](CCCCNC(=O)COCCOCCNC(=O)COCCOCCNC(=O)CC[C@H](NC(=O)CCCCCCCCCCCCCCCCC(=O)O)C(=O)O)NC(=O)[C@@H](NC(=O)[C@@H](CCCNC(=N)N)NC(C)=O)C(C)(C)SSC(C)(C)[C@@H](C(=O)N[C@@H](Cc2ccc(OCCN)cc2)C(=O)N[C@@H](Cc2ccc3ccccc3c2)C(=O)NC2(C(=O)N[C@@H](CCCCNC(C)=O)C(=O)N[C@@H](CC(N)=O)C(=O)N[C@@H](Cc3cccnc3)C(=O)N(C)CC(N)=O)CCOCC2)NC1=O [Example 50, MeCO-r-Pen*-K(PEG2PEG2gEC18OH)-T-7MeW-K(Ac)-Pen*-AEF-2Nal-THP-K(Ac)-N-3Pya-Sar-CONH2] (Ac-[dR][Pen]K([AEEA-AEEA-γGlu-C18 diacid])T[Trp(7-Me)]K(Ac)[Pen][AEF][2Nal][Thp]K(Ac)N[3Pal][Sar]-NH2; disulfide 2-7)
0.15	CC(=O)NCCCC[C@@H]1NC(=O)[C@H](Cc2c[nH]c3c(C)cccc23)NC(=O)[C@H]([C@@H](C)O)NC(=O)[C@H](CCCCNC(=O)COCCOCCNC(=O)CC[C@H](NC(=O)CCCCCCCCCCCCCCCCC(=O)O)C(=O)O)NC(=O)[C@@H](NC(=O)[C@@H](CCCNC(=N)N)NC(C)=O)C(C)(C)SSC(C)(C)[C@@H](C(=O)N[C@@H](Cc2ccc(OCCN)cc2)C(=O)N[C@@H](Cc2ccc3ccccc3c2)C(=O)NC2(C(=O)N[C@@H](CCCCNC(C)=O)C(=O)N[C@@H](CC(N)=O)C(=O)N[C@@H](Cc3cccnc3)C(=O)N(C)CC(N)=O)CCOCC2)NC1=O [Example 52, MeCO-r-Pen*-K(PEG2gE C18OH)-T-7MeW-K(Ac)-Pen*-AEF-2Nal-THP-K(Ac)-N-3Pya-Sar-CONH2] (Ac-[dR][Pen]K([AEEA-γGlu-C18 diacid])T[Trp(7-Me)]K(Ac)[Pen][AEF][2Nal][Thp]K(Ac)N[3Pal][Sar]-NH2; disulfide 2-7)
0.13	CC(=O)NCCCC[C@@H]1NC(=O)[C@H](Cc2c[nH]c3c(C)cccc23)NC(=O)[C@H]([C@@H](C)O)NC(=O)[C@H](CC(N)=O)NC(=O)[C@@H](NC(=O)[C@@H](CCCNC(=N)N)NC(C)=O)C(C)(C)SSC(C)(C)[C@@H](C(=O)N[C@@H](Cc2ccc(OCCN)cc2)C(=O)N[C@@H](Cc2ccc3ccccc3c2)C(=O)NC2(C(=O)N[C@@H](CCCCNC(C)=O)C(=O)N[C@@H](CC(N)=O)C(=O)N[C@@H](Cc3cccnc3)C(=O)N(C)[C@@H](CCCCNC(=O)COCCOCCNC(=O)COCCOCCNC(=O)CC[C@H](NC(=O)CCCCCCCCCCCCCCCCC(=O)O)C(=O)O)C(N)=O)CCOCC2)NC1=O [Example 54, MeCO-r-Pen*-N-T-7MeW-K(Ac)-Pen*-AEF-2Nal-THP-K(Ac)-N-3Pya-NMeK(PEG2PEG2gEC18OH)-CONH2] (Ac-[dR][Pen]NT[Trp(7-Me)]K(Ac)[Pen][AEF][2Nal][Thp]K(Ac)N[3Pal][NMeK]([AEEA-AEEA-γGlu-C18 diacid])-NH2; disulfide 2-7)
0.13	CC(=O)NCCCC[C@@H]1NC(=O)[C@H](Cc2c[nH]c3c(C)cccc23)NC(=O)[C@H]([C@@H](C)O)NC(=O)[C@H](CC(N)=O)NC(=O)[C@@H](NC(=O)[C@@H](CCCNC(=N)N)NC(C)=O)C(C)(C)SSC(C)(C)[C@@H](C(=O)N[C@@H](Cc2ccc(OCCN)cc2)C(=O)N[C@@H](Cc2ccc3ccccc3c2)C(=O)NC2(C(=O)N[C@@H](CCCCNC(=O)COCCOCCNC(=O)COCCOCCNC(=O)CC[C@@H](NC(=O)CCCCCCCCCCCCCCCCC(=O)O)C(=O)O)C(=O)N[C@@H](CC(N)=O)C(=O)N[C@@H](Cc3cccnc3)C(=O)N(C)CC(N)=O)CCOCC2)NC1=O [Example 55, MeCO-r-Pen*-N-T-7MeW-K(Ac)-Pen*-AEF-2Nal-THP-K(PEG2PEG2DgEC18OH)-N-3Pya-Sar-CONH2] (Ac-[dR][Pen]NT[Trp(7-Me)]K(Ac)[Pen][AEF][2Nal][Thp]K([AEEA-AEEA-d(γGlu)-C18 diacid])N[3Pal][Sar]-NH2; disulfide 2-7)
0.3	CC(=O)NCCCC[C@@H]1NC(=O)[C@H](Cc2c[nH]c3c(C)cccc23)NC(=O)[C@H]([C@@H](C)O)NC(=O)[C@H](CC(N)=O)NC(=O)[C@@H](NC(=O)[C@@H](CCCNC(=N)N)NC(C)=O)C(C)(C)SSC(C)(C)[C@@H](C(=O)N[C@@H](Cc2ccc(OCCN)cc2)C(=O)N[C@@H](Cc2ccc3ccccc3c2)C(=O)NC2(C(=O)N[C@@H](CCCCNC(=O)COCCOCCNC(=O)COCCOCCNC(=O)[C@H]3CCCN3C(=O)CCCCCCCCCCCCCCCCC(=O)O)C(=O)N[C@@H](CC(N)=O)C(=O)N[C@@H](Cc3cccnc3)C(=O)N(C)CC(N)=O)CCOCC2)NC1=O [Example 57, MeCO-r-Pen*-N-T-7MeW-K(Ac)-Pen*-AEF-2Nal-THP-K(PEG2PEG2pC18OH)-N-3Pya-Sar-CONH2] (Ac-[dR][Pen]NT[Trp(7-Me)]K(Ac)[Pen][AEF][2Nal][Thp]K([AEEA-AEEA-dP-C18 diacid])N[3Pal][Sar]-NH2; disulfide 2-7)
0.042	CC(=O)NCCCC[C@@H]1NC(=O)[C@H](Cc2c[nH]c3c(C)cccc23)NC(=O)[C@H]([C@@H](C)O)NC(=O)[C@H](CC(N)=O)NC(=O)[C@@H](NC(=O)[C@@H](CCCCNC(=O)CCOCCOCCOCCOCCOCCOCCNC(=O)CC[C@H](NC(=O)CCCCCCCCCCCCCCCCC(=O)O)C(=O)O)NC(C)=O)C(C)(C)SSC(C)(C)[C@@H](C(=O)N[C@@H](Cc2ccc(OCCN)cc2)C(=O)N[C@@H](Cc2ccc3ccccc3c2)C(=O)NC2(C(=O)N[C@@H](CCCCNC(C)=O)C(=O)N[C@@H](CC(N)=O)C(=O)N[C@@H](Cc3cccnc3)C(=O)N(C)CC(N)=O)CCOCC2)NC1=O [Example 60, MeCO-k(PEG6 gE C18OH)-Pen*-N-T-7MeW-K(Ac)-Pen*-AEF-2Nal-THP-K(Ac)-N-3Pya-Sar-CONH2] (Ac-[dK]([PEG6-γGlu-C18 diacid])[Pen]NT[Trp(7-Me)]K(Ac)[Pen][AEF][2Nal][Thp]K(Ac)N[3Pal][Sar]-NH2; disulfide 2-7)
0.13	CC(=O)NCCCC[C@@H]1NC(=O)[C@H](Cc2c[nH]c3c(C)cccc23)NC(=O)[C@H]([C@@H](C)O)NC(=O)[C@H](CCCCNC(=O)CCOCCOCCOCCOCCOCCOCCNC(=O)CC[C@H](NC(=O)CCCCCCCCCCCCCCCCC(=O)O)C(=O)O)NC(=O)[C@@H](NC(=O)[C@@H](CCCNC(=N)N)NC(C)=O)C(C)(C)SSC(C)(C)[C@@H](C(=O)N[C@@H](Cc2ccc(OCCN)cc2)C(=O)N[C@@H](Cc2ccc3ccccc3c2)C(=O)NC2(C(=O)N[C@@H](CCCCNC(C)=O)C(=O)N[C@@H](CC(N)=O)C(=O)N[C@@H](Cc3cccnc3)C(=O)N(C)CC(N)=O)CCOCC2)NC1=O [Example 63, MeCO-r-Pen*-K(PEG6gEC18OH)-T-7MeW-K(Ac)-Pen*-AEF-2Nal-THP-K(Ac)-N-3Pya-Sar-CONH2] (Ac-[dR][Pen]K([PEG6-γGlu-C18 diacid])T[Trp(7-Me)]K(Ac)[Pen][AEF][2Nal][Thp]K(Ac)N[3Pal][Sar]-NH2; disulfide 2-7)
0.19	CC(=O)NCCCC[C@@H]1NC(=O)[C@H](Cc2c[nH]c3c(C)cccc23)NC(=O)[C@H]([C@@H](C)O)NC(=O)[C@H](CC(N)=O)NC(=O)[C@@H](NC(=O)[C@@H](CCCNC(=N)N)NC(C)=O)C(C)(C)SSC(C)(C)[C@@H](C(=O)N[C@@H](Cc2ccc(OCCN)cc2)C(=O)N[C@@H](Cc2ccc3ccccc3c2)C(=O)NC2(C(=O)N[C@@H](CCCCNC(=O)COCCOCCNC(=O)COCCOCCNC(=O)[C@@H]3CCCN3C(=O)[C@@H]3CCCN3C(=O)[C@@H]3CCCN3C(=O)CCCCCCCCCCCCCCCCC(=O)O)C(=O)N[C@@H](CC(N)=O)C(=O)N[C@@H](Cc3cccnc3)C(=O)N(C)CC(N)=O)CCOCC2)NC1=O [Example 65, MeCO-r-Pen*-N-T-7MeW-K(Ac)-Pen*-AEF-2Nal-THP-K(PEG2PEG2PPPC18OH)-N-3Pya-Sar-CONH2] (Ac-[dR][Pen]NT[Trp(7-Me)]K(Ac)[Pen][AEF][2Nal][Thp]K([AEEA-AEEA-Pro-Pro-Pro-C18 diacid])N[3Pal][Sar]-NH2; disulfide 2-7)
